Tested on: diamond back moth
Test: Field trial against diamond back moth on cabbage
Assay type: in vivo, Plutella xylostella
Procedure: Calculation Method: Decrease rate of insects (%)=(the number of insects before application−the number of insects after application) the number of insects before application×100 Control efficacy (%)=(decrease rate of insects in treated area decrease rate of insects in blank comparative area)/(100−decrease rate of insects in blank comparative area)×100
The trial was carried out in the test filed of Shenyang Research Institute of Chemical industry Ltd. The trial crop is cabbage (Variety: Zhonggan NO 8.). The dosage of the compound 1 are 75, 105, 150 g a.i./hm^2 and comparative agent pyridalyl is 105 g a.i./hm^2. The agent was applied once on 13 Jun. 2011. The application tool is Shandongweishi WS-16P type backpack manual sprayer. Evenly spraying to whole cabbage which is in rosette stage was conducted. Diamond back moth is originated at the peak time. The plot area is 10 m^2, 3 replicates and randomized block arrangement were set. The amount of spray liquid is 750 L/hm^2. It was sunny with the highest temperature of 29° C., and the lowest of 17° C. on the day of the application of the spray. The methods of investigation and calculation are the same as Example 13.

FC(F)(F)c1ccc(Oc2ccc(OCCCOc3c(Cl)cc(OCC=C(Cl)Cl)cc3Cl)cc2)nc1 [Compound 1]
Control efficacy (%) (75 g a.i./hm^2, 10% EC, 1 day after treatment): 86.0%
Control efficacy (%) (75 g a.i./hm^2, 10% EC, 3 days after treatment): 98.7%
Control efficacy (%) (75 g a.i./hm^2, 10% EC, 7 days after treatment): 97.6%
Control efficacy (%) (105 g a.i./hm^2, 10% EC, 1 day after treatment): 93.4%
Control efficacy (%) (105 g a.i./hm^2, 10% EC, 3 days after treatment): 97.0%
Control efficacy (%) (105 g a.i./hm^2, 10% EC, 7 days after treatment): 97.8%
Control efficacy (%) (150 g a.i./hm^2, 10% EC, 1 day after treatment): 90.4%
Control efficacy (%) (150 g a.i./hm^2, 10% EC, 3 days after treatment): 97.9%
Control efficacy (%) (150 g a.i./hm^2, 10% EC, 7 days after treatment): 97.9%

— patent US8969332B2, “Aryloxy dihalopropenyl ether compounds and uses thereof” (Sinochem Corporation, priority 2011, dated 2015)
